Test results published in BigSolDB 2.1.

CN1COCN(Cc2cnc(Cl)s2)C1=N[N+](=O)[O-]
solubility (mole fraction)
Settings	278.15 K	283.15 K	288.15 K	293.15 K	298.15 K	303.15 K	308.15 K	313.15 K	318.15 K	323.15 K
in 1,4-dioxane	–	–	0.00242	0.00311	0.00395	0.00496	0.00626	0.00763	0.00958	0.0117
in DMAc	0.0654	0.0728	0.0802	0.0888	0.0976	0.107	0.118	0.129	0.14	0.152
in DMSO	–	–	0.0672	0.0776	0.0885	0.101	0.115	0.13	0.147	0.164
in acetonitrile	0.00675	0.00854	0.0106	0.0131	0.0161	0.0196	0.0238	0.0288	0.0349	0.0414
in water	7.29e-05	9.97e-05	0.000132	0.000182	0.000241	0.000322	0.000418	0.000538	0.000696	0.000885
